{"source": "patent US11326207B2", "about": "“Sequencing using non-natural nucleotides” (Ultima Genomics, Inc., priority 2017, dated 2022)", "key": {"[1]": {"tested_on": "Bst 2.0 DNA polymerase", "assay": "Homopolymer assays of nucleotide analogs (Example 10)", "type": "biochemical", "method": "A homopolymer assay was performed to investigate the effectiveness of E-dCTP and P-dUTP as nucleotide analogs of dCTP. 50 μl solutions containing a template nucleic acid molecule and primer and Bst 2.0 DNA polymerase are placed in a microplate reader and the fluorescence of the solution is measured in kinetic mode. A fluorescein attached to an oligonucleotide (indicated with a * in FIG. 7) was quenched in the substrate due to the proximity of complementary G bases. Addition of dCTP and/or dCTP analogs causes extension of the 3′ end of the primer, formation of double-stranded DNA, and unquenching of the fluorescein. The fluorescence increases with the addition of multiple nucleotides.\nAdditional homopolymer assays were performed according to the procedure outlined in Example 8 using different nucleotides and nucleotide analogs.\nTo test for dUTP or TTP incorporation, oligo 332 was used as a template and oligo 221L was used as a primer. To test for dCTP incorporation, oligo 333 was used as a template and oligo 221L was used as a primer. To test for dGTP incorporation, oligo 334 was used as a template and oligo 221L was used as a primer. To test for dATP incorporation, hairpin oligo 221 was used as both a primer and template."}, "[2]": {"tested_on": "Bst DNA polymerase v.2.0", "assay": "Flow cytometry assay: tolerance of dye-labeled dUTP* compared to dUTP analogs (Example 7)", "type": "biochemical", "details": "for Tolerance: tolerance of dUTP* compared to the named dUTP^0", "method": "A solution of biotinylated template (2 microliters (μL) of 100 μM) and dye-labeled primer (4 μL of 100 μM) were combined in annealing buffer (40 μL; Tris (10 millimolar (mM)), EDTA (1 mM), NaCl (100 mM)). The resulting solution was heated to 95° C. and allowed to slowly cool to room temperature. A portion of this solution (8 μL) was mixed with streptavidin-labeled magnetic beads (4 μL of Invitrogen Dynabeads™ MyOne™ Streptavidin C1, 10 milligrams/milliliter (mg/mL); washed and eluant removed) and 2× bead wash buffer (8 μL; 10 mM Tris, pH 7.5, 1 mM EDTA, 2 M NaCl, 0.01% Triton X-100). After washing with TET solution (10 mM Tris, 1 mM EDTA, 0.05% Triton X-100) the beads were treated with Bst DNA polymerase v.2.0 (8 μL of 8 units (U)/μL; New England Biolabs) for five minutes. The excess enzyme was removed by washing with TET and the beads were suspended in 1×DNA polymerase buffer solution (20 mM Tris, pH 8, 10 mM NaCl, 2 mM MgCl2, 0.01% Triton X-100). The sequence of the biotinylated template was /52 Bio//iSp18/[…] […] (SEQ ID NO: 12), where “5” is indicative of the 5′-end of the oligo, 2-Bio indicates dual biotin, and iSP18 indicates a PEG spacer. […] […] (SEQ ID NO: 13), where “5” indicates the 5′-end of the oligo and JOE indicates a fluorescent dye attached to the oligo.\nNext, a portion of the suspended magnetic beads (10 μL) were removed and placed in a PCR tube. A solution of nucleotides (10 μL) was added to the tube and the tube incubated for 40 seconds (s) at 50° C. The enzyme reaction was stopped with the addition of 5 μL of 50 mM EDTA. The beads were washed with 2×100 μL TET and resuspended in 20 μL TET. A portion of the bead solution (1 μL) was added to TE (200 μL) and the beads examined for red fluorescence on a flow cytometer (BD Accuri™, APC channel). The eluant of the remaining beads was removed and 40 μL of 95:5 formamide:10 mM EDTA was added to the beads. A portion of the formamide solution (1 μL) was added to 40 μL 95:5 formamide EDTA. The solutions were examined by capillary electrophoresis (CE) on an ABI 3730 instrument and the peaks identified and quantitated by peak height. The experimental protocol is summarized schematically in FIG. 2.\nTolerance was measured at two molar fractions, […] and 0.05, for each of the four dUTP analogs."}, "[3]": {"tested_on": "hairpin oligo", "assay": "Kinetic assay using hairpin oligos (Example 7)", "type": "biochemical", "method": "A kinetic assay using hairpin oligos was also performed to determine the rate of incorporate of an unnatural nucleotide and a natural nucleotide following the unnatural nucleotide. […] Incorporation of a T or U analog unquenched a fluorescein in the hairpin oligo. Following incorporation of the T or U analog, a mixture of C and A was added, which further unquenched the dye."}, "[4]": {"tested_on": "DNA polymerase", "details": "for peak height (red fluorescence on the gel): dUTP* only (Fr = 1.0) or dUTP*/named dUTP^0", "protocol": "A gel assay was also performed to examine context-dependent incorporation. […] The primers had different lengths poly-T tails to enable separation on a polyacrylamide gel. […] Excess nucleotides and nucleotide analogs were washed away and the sample was loaded onto a gel.\nThe red fluorescence on the gel was analyzed with ImageJ. The peak heights for the extension reactions for each primer with Fr=1.0 was measured. […] The ratios of the peak heights for each pair were calculated (“norm.”). […] The metric in this experiment was context, as defined as: C=(Maximum signal−minimum signal)/(average signal)."}, "[5]": {"details": "Natural Nucleotide T (TTP = 1), template oligo 332, primer 221L"}, "[6]": {"details": "Natural Nucleotide G (dGTP = 1), template oligo 334, primer 221L"}, "[7]": {"details": "Natural Nucleotide C (dCTP = 1), template oligo 333, primer 221L"}, "[8]": {"details": "Natural Nucleotide A (dATP = 1), hairpin oligo 221"}}, "note": "Where two headings read alike, the source gives them in different places.", "data": [{"molecule": "C#CCNc1cn([C@H]2C[C@H](O)[C@@H](COP(=O)(O)OP(=O)(O)OP(=O)(O)O)O2)c(=O)[nH]c1=O", "note": "[5-Propargylamino-dUTP, 5-proparylamino-2′-deoxyuridine 5′triphosphate]", "values": [{"measurement": "Relative Rate in Homopolymer Assay", "setting": "[1]; [5]", "value": "<<1"}]}, {"molecule": "Nc1nc2c(ccn2[C@H]2C[C@H](O)[C@@H](COP(=O)(O)OP(=O)(O)OP(=O)(O)O)O2)c(=O)[nH]1", "note": "[7-deaza-dGTP, 7-deaza-2′-deoxyguanosine-5′-triphosphate]", "values": [{"measurement": "Relative Rate in Homopolymer Assay", "setting": "[1]; [6]", "value": "<1"}]}, {"molecule": "Nc1nc2c(ncn2[C@H]2C[C@H](O)[C@@H](COP(=O)(O)OP(=O)(O)OP(=O)(O)O)O2)c(=O)[nH]1", "note": "[dGTP, deoxyguanosine triphosphate, reference compound]", "values": [{"measurement": "Relative Rate in Homopolymer Assay", "setting": "[1]; [6]", "value": 1}]}, {"molecule": "Cc1cn([C@H]2C[C@H](O)[C@@H](COP(=O)(O)OP(=O)(O)OP(=O)(O)O)O2)c(=O)nc1N", "note": "[5-Methyl-dCTP, 5-methyl-2′-deoxycytidine 5′triphosphate]", "values": [{"measurement": "Relative Rate in Homopolymer Assay", "setting": "[1]; [7]", "value": ">1"}]}, {"molecule": "Nc1nc(=O)n([C@H]2C[C@H](O)[C@@H](COP(=O)(O)OP(=O)(O)OP(=O)(O)O)O2)cc1CO", "note": "[5-Hydroxymethyl-dCTP, 5-ydroxymethyl-2′-deoxycytidine 5′triphosphate]", "values": [{"measurement": "Relative Rate in Homopolymer Assay", "setting": "[1]; [7]", "value": "<<1"}]}, {"molecule": "Nc1ncnc2c1c(I)cn2[C@H]1C[C@H](O)[C@@H](COP(=O)(O)OP(=O)(O)OP(=O)(O)O)O1", "note": "[7-Iodo-7-deaza-dATP, 7-deaza-7-iodo-2′-deoxyadenosine-5′-triphosphate]", "values": [{"measurement": "Relative Rate in Homopolymer Assay", "setting": "[1]; [8]", "value": ">1"}]}, {"molecule": "Nc1nc(=O)n([C@H]2C[C@H](O)[C@@H](COP(=O)(O)OP(=O)(O)OP(=O)(O)O)O2)cc1O", "note": "[5-Hydroxy-dCTP, 5-hydroxy-2′-deoxycytidine 5′triphosphate]", "values": [{"measurement": "Relative Rate in Homopolymer Assay", "setting": "[1]; [7]", "value": "<<1"}]}, {"molecule": "Nc1nc(=O)n([C@H]2C[C@H](O)[C@@H](COP(=O)(O)OP(=O)(O)OP(=O)(O)O)O2)cc1C=O", "note": "[5-formyl-dCTP, 5-formyl-2′-deoxycytidine 5′triphosphate]", "values": [{"measurement": "Relative Rate in Homopolymer Assay", "setting": "[1]; [7]", "value": "<<1"}]}, {"molecule": "CC#Cc1cn([C@H]2C[C@H](O)[C@@H](COP(=O)(O)OP(=O)(O)OP(=O)(O)O)O2)c(=O)[nH]c1=O", "note": "[P-dUTP, 5-propynyl-2′-deoxyuridine 5′triphosphate]", "values": [{"measurement": "performance as a substrate compared with TTP (in words)", "setting": "[2]; from tolerance for the labeled nucleotide at both molar fractions", "value": "outperforms TTP as a substrate"}, {"measurement": "Apparent fraction", "setting": "[2]; molar fraction dUTP* 0.05", "value": 0.032}, {"measurement": "Red signal", "setting": "[2]; molar fraction dUTP* 0.05, rest the named dUTP^0", "value": "1,600"}, {"measurement": "Apparent fraction", "setting": "[2]; molar fraction dUTP* 0.5", "value": 0.32}, {"measurement": "Red signal", "setting": "[2]; molar fraction dUTP* 0.5, rest the named dUTP^0", "value": "16,000"}, {"measurement": "Tolerance", "setting": "[2]; molar fraction dUTP* 0.05", "value": 0.6}, {"measurement": "Tolerance", "setting": "[2]; molar fraction dUTP* 0.5", "value": 0.6}, {"measurement": "incorporation of dCTP and dATP after the dUTP analog", "setting": "[3]; mixture of C and A added after T or U analog", "value": "rapid"}, {"measurement": "initial incorporation of dUTP analog", "setting": "[3]; unquenching of fluorescein in hairpin oligo", "value": "rapid"}, {"measurement": "Relative Rate in Homopolymer Assay", "setting": "[1]; [5]", "value": ">1"}, {"measurement": "Norm. (ratio of peak height dUTP*/dUTP^0 to Fr=1.0)", "setting": "[4]; Peak 1", "value": 1.3}, {"measurement": "peak height (red fluorescence on the gel)", "setting": "[4]; Peak 1 (primer)", "value": 55}, {"measurement": "Norm. (ratio of peak height dUTP*/dUTP^0 to Fr=1.0)", "setting": "[4]; Peak 2", "value": 1.4}, {"measurement": "peak height (red fluorescence on the gel)", "setting": "[4]; Peak 2 (primer)", "value": 54}, {"measurement": "Norm. (ratio of peak height dUTP*/dUTP^0 to Fr=1.0)", "setting": "[4]; Peak 3", "value": 1.0}, {"measurement": "peak height (red fluorescence on the gel)", "setting": "[4]; Peak 3 (primer)", "value": 27}, {"measurement": "Norm. (ratio of peak height dUTP*/dUTP^0 to Fr=1.0)", "setting": "[4]; Peak 4", "value": 1.1}, {"measurement": "peak height (red fluorescence on the gel)", "setting": "[4]; Peak 4 (primer)", "value": 36}, {"measurement": "Norm. (ratio of peak height dUTP*/dUTP^0 to Fr=1.0)", "setting": "[4]; Peak 5", "value": 1.4}, {"measurement": "peak height (red fluorescence on the gel)", "setting": "[4]; Peak 5 (primer)", "value": 32}, {"measurement": "context C=(Maximum signal−minimum signal)/(average signal)", "setting": "[4]; five primers, gel assay with dUTP*", "value": 0.32}]}, {"molecule": "O=c1[nH]c(=O)n([C@H]2C[C@H](O)[C@@H](COP(=O)(O)OP(=O)(O)OP(=O)(O)O)O2)cc1F", "note": "[5-Fluoro-dUTP, 5-fluoro-2′-deoxyuridine 5′triphosphate]", "values": [{"measurement": "Relative Rate in Homopolymer Assay", "setting": "[1]; [5]", "value": "<1"}]}, {"molecule": "Nc1ncnc2c1ccn2[C@H]1C[C@H](O)[C@@H](COP(=O)(O)OP(=O)(O)OP(=O)(O)O)O1", "note": "[7-deaza-dATP, 7-deaza-2′-deoxyadenosine-5′-triphosphate]", "values": [{"measurement": "Relative Rate in Homopolymer Assay", "setting": "[1]; [8]", "value": "<1"}]}, {"molecule": "Nc1ncnc2c1nc(Br)n2[C@H]1C[C@H](O)[C@@H](COP(=O)(O)OP(=O)(O)OP(=O)(O)O)O1", "note": "[Bromo-dATP, bromo-deoxyadenosine triphosphate]", "values": [{"measurement": "Relative Rate in Homopolymer Assay", "setting": "[1]; [8]", "value": ">1"}]}, {"molecule": "Nc1ncnc2c1ncn2[C@H]1C[C@H](O)[C@@H](COP(=O)(O)OP(=O)(O)OP(=O)(O)O)O1", "note": "[dATP, deoxyadenosine triphosphate, reference compound]", "values": [{"measurement": "Relative Rate in Homopolymer Assay", "setting": "[1]; [8]", "value": 1}]}, {"molecule": "O=c1[nH]c(=O)n([C@H]2C[C@H](O)[C@@H](COP(=O)(O)OP(=O)(O)OP(=O)(O)O)O2)cc1I", "note": "[5-Iodo-dUTP, 5-iodo-2′-deoxyuridine 5′triphosphate]", "values": [{"measurement": "Relative Rate in Homopolymer Assay", "setting": "[1]; [5]", "value": ">1"}]}, {"molecule": "iodo-2′-deoxyguanosine-5′-triphosphate [Iodo-dGTP]", "values": [{"measurement": "Relative Rate in Homopolymer Assay", "setting": "[1]; [6]", "value": ">1"}]}, {"molecule": "Nc1nc(=O)n([C@H]2C[C@H](O)[C@@H](COP(=O)(O)OP(=O)(O)OP(=O)(O)O)O2)cc1Br", "note": "[5-Bromo-dCTP, 5-bromo-2′-deoxycytidine 5′triphosphate]", "values": [{"measurement": "Relative Rate in Homopolymer Assay", "setting": "[1]; [7]", "value": ">1"}]}, {"molecule": "O=c1[nH]c(=O)n([C@H]2C[C@H](O)[C@@H](COP(=O)(O)OP(=O)(O)OP(=O)(O)O)O2)cc1Br", "note": "[5-Bromo-dUTP, 5-bromo-2′-deoxyuridine 5′triphosphate]", "values": [{"measurement": "Relative Rate in Homopolymer Assay", "setting": "[1]; [5]", "value": ">1"}]}]}
